How the values were obtained:
Mer tyrosine kinase = Mer tyrosine kinase (Homo sapiens (Human), UniProt Q12866); assay: Evaluation of activity against Mer tyrosine kinase; assay type: biochemical
Tyro3 tyrosine kinase = Tyro3 tyrosine kinase (Homo sapiens (Human), UniProt Q06418); assay: Evaluation of activity against Tyro3 tyrosine kinase; assay type: biochemical
Tyro3 tyrosine kinase, sequence (Q06418 41-890): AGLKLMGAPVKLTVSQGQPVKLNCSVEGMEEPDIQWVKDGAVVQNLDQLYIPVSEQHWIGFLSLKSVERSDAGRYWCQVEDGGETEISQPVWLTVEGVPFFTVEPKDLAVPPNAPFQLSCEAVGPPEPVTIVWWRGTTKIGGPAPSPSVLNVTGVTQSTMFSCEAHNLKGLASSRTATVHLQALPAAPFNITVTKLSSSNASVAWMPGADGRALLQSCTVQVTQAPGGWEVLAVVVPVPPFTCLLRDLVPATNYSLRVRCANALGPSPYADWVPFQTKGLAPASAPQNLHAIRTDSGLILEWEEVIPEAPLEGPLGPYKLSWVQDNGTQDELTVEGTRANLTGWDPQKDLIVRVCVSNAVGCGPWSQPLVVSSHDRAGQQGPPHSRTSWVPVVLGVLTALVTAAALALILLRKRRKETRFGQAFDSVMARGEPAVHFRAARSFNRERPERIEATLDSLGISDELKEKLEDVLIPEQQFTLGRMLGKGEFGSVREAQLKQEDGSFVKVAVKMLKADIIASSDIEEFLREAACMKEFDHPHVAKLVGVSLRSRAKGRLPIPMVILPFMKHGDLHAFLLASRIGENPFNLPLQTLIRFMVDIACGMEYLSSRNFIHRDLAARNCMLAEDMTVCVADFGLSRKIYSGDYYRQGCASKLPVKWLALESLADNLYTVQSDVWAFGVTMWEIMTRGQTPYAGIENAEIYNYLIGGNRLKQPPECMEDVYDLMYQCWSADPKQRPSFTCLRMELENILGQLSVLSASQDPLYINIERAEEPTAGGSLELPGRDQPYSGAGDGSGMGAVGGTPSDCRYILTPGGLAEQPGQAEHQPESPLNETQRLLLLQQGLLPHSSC

Mer tyrosine kinase, sequence (Q12866 21-999): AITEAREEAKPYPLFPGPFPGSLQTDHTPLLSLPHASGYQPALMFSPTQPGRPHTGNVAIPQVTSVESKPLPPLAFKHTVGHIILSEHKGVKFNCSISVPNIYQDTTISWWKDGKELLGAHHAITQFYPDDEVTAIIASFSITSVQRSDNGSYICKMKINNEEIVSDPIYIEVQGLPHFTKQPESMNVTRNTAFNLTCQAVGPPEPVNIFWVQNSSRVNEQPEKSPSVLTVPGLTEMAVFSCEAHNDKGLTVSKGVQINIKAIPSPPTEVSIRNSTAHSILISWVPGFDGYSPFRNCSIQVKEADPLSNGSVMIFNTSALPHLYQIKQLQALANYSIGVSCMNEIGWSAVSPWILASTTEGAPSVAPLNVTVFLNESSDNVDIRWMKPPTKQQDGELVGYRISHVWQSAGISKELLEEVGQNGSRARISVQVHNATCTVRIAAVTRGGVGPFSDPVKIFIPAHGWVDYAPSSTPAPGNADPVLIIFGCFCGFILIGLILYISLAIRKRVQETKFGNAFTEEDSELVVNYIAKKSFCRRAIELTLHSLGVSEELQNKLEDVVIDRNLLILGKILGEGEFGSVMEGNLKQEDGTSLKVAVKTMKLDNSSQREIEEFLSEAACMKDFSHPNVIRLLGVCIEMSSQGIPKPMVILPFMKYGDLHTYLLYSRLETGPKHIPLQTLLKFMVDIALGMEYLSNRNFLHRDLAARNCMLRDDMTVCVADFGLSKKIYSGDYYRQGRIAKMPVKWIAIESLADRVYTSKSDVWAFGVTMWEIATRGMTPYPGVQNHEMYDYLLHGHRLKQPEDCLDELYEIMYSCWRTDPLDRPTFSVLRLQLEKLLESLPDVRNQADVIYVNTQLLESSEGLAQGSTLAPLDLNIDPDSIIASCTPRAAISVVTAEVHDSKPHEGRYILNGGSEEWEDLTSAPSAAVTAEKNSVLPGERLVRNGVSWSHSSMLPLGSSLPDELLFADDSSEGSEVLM

| Structure (SMILES) | IC50 (Mer tyrosine kinase) | IC50 (Tyro3 tyrosine kinase) |
| --- | --- | --- |
| CCC[C@H](C)Nc1ncc2c(C3CCN(C(=O)c4cc(C)nc(C)c4)CC3)cn(C[C@H]3CC[C@H](N)CC3)c2n1 [compound 102, (4-(7-(((1R,4S)-4-aminocyclohexyl)methyl)-2-(((S)-pentan-2-yl)amino)-7H-pyrrolo[2,3-d]pyrimidin-5-yl)piperidin-1-yl)(2,6-dimethylpyridin-4-yl)methanone] | < 0.01 µM | 0.1 to 1 µM |
| CCC[C@H](C)Nc1ncc2c(C3CCN(C(=O)c4ccccc4OC)CC3)cn([C@H]3CC[C@H](O)CC3)c2n1 [compound 33, (4-(7-((1R,4S)-4-hydroxycyclohexyl)-2-(((S)-pentan-2-yl)amino)-7H-pyrrolo[2,3-d]pyrimidin-5-yl)piperidin-1-yl)(2-methoxyphenyl)methanone] | < 0.01 µM | 0.1 to 1 µM |
| CCC[C@H](C)Nc1ncc2c(C3CCN(C(=O)c4ccc(F)cc4)CC3)cn([C@H]3CC[C@H](O)CC3)c2n1 [compound 89, (4-fluorophenyl)(4-(7-((1R,4S)-4-hydroxycyclohexyl)-2-(((S)-pentan-2-yl)amino)-7H-pyrrolo[2,3-d]pyrimidin-5-yl)piperidin-1-yl)methanone] | < 0.01 µM | 0.1 to 1 µM |
| CCC[C@H](C)Nc1ncc2c(C3CCN(C(=O)C4CCN(C)C4)CC3)cn([C@H]3CC[C@H](O)CC3)c2n1 (stereo partly drawn) [compound 18, (4-(7-((1R,4S)-4-hydroxycyclohexyl)-2-(((S)-pentan-2-yl)amino)-7H-pyrrolo[2,3-d]pyrimidin-5-yl)piperidin-1-yl)(1-methylpyrrolidin-3-yl)methanone] | < 0.01 µM | 0.01 to 0.1 µM |
| CCC[C@H](C)Nc1ncc2c(C3CCN(C(=O)[C@H]4CCCNC4)CC3)cn([C@H]3CC[C@H](O)CC3)c2n1 [compound 24, (4-(7-((1R,4S)-4-hydroxycyclohexyl)-2-(((S)-pentan-2-yl)amino)-7H-pyrrolo[2,3-d]pyrimidin-5-yl)piperidin-1-yl)((S)-piperidin-3-yl)methanone] | < 0.01 µM | 0.01 to 0.1 µM |
| CCC[C@H](C)Nc1ncc2c(C3CCN(C(=O)c4cc(OC)cc(OC)c4)CC3)cn([C@H]3CC[C@H](O)CC3)c2n1 [compound 80, (3,5-dimethoxyphenyl)(4-(7-((1R,4S)-4-hydroxycyclohexyl)-2-(((S)-pentan-2-yl)amino)-7H-pyrrolo[2,3-d]pyrimidin-5-yl)piperidin-1-yl)methanone] | < 0.01 µM | 0.1 to 1 µM |
| CCC[C@H](C)Nc1ncc2c(C3CCN(C(=O)c4cc(C)nc(C)c4)CC3)cn([C@H]3CC[C@H](O)CC3)c2n1 [compound 34, (2,6-dimethylpyridin-4-yl)(4-(7-((1R,4S)-4-hydroxycyclohexyl)-2-(((S)-pentan-2-yl)amino)-7H-pyrrolo[2,3-d]pyrimidin-5-yl)piperidin-1-yl)methanone] | < 0.01 µM | 0.01 to 0.1 µM |
| CCC[C@H](C)Nc1ncc2c(C3CCN(CC4CCN(C)CC4)CC3)cn([C@H]3CC[C@H](O)CC3)c2n1 [compound 54, (1S,4R)-4-(5-(1-((1-methylpiperidin-4-yl)methyl)piperidin-4-yl)-2-(((S)-pentan-2-yl)amino)-7H-pyrrolo[2,3-d]pyrimidin-7-yl)cyclohexan-1-ol] | < 0.01 µM | 0.01 to 0.1 µM |
| CCC[C@H](C)Nc1ncc2c(C3CCN(C(=O)[C@H]4CCCCN4)CC3)cn([C@H]3CC[C@H](O)CC3)c2n1 [compound 20, (4-(7-((1R,4S)-4-hydroxycyclohexyl)-2-(((S)-pentan-2-yl)amino)-7H-pyrrolo[2,3-d]pyrimidin-5-yl)piperidin-1-yl)((R)-piperidin-2-yl)methanone] | < 0.01 µM | 0.1 to 1 µM |
| CCC[C@H](C)Nc1ncc2c(C3CCN(C(=O)C4CCCN4)CC3)cn([C@H]3CC[C@H](O)CC3)c2n1 (stereo partly drawn) [compound 15, 7-((1R,4S)-4-hydroxycyclohexyl)-2-(((S)-pentan-2-yl)amino)-5-(1-prolylpiperidin-4-yl)-7H-pyrrolo[2,3-d]pyrimidine] | < 0.01 µM | 0.01 to 0.1 µM |
| CCC[C@H](C)Nc1ncc2c(C3CCN(C(=O)C4CCNC4)CC3)cn([C@H]3CC[C@H](O)CC3)c2n1 (stereo partly drawn) [compound 17, (4-(7-((1R,4S)-4-hydroxycyclohexyl)-2-(((S)-pentan-2-yl)amino)-7H-pyrrolo[2,3-d]pyrimidin-5-yl)piperidin-1-yl)(pyrrolidin-3-yl)methanone] | < 0.01 µM | 0.01 to 0.1 µM |
| C[C@H](Nc1ncc2c(C3CCN(CC4CCCCC4)CC3)cn([C@H]3CC[C@H](O)CC3)c2n1)c1ccccc1 [compound 92, (1S,4R)-4-(5-(1-(cyclohexylmethyl)piperidin-4-yl)-2-(((S)-1-phenylethyl)amino)-7H-pyrrolo[2,3-d]pyrimidin-7-yl)cyclohexan-1-ol] | < 0.01 µM | 0.1 to 1 µM |
| CCC[C@H](C)Nc1ncc2c(C3CCN(C(=O)C4CN(C)C4)CC3)cn([C@H]3CC[C@H](O)CC3)c2n1 [compound 14, (4-(7-((1R,4S)-4-hydroxycyclohexyl)-2-(((S)-pentan-2-yl)amino)-7H-pyrrolo[2,3-d]pyrimidin-5-yl)piperidin-1-yl)(1-methylazetidin-3-yl)methanone] | < 0.01 µM | 0.01 to 0.1 µM |
| CCC[C@H](C)Nc1ncc2c(C3CCN(S(=O)(=O)C4CCN(C)CC4)CC3)cn([C@H]3CC[C@H](O)CC3)c2n1 [compound 1, (1S,4R)-4-(5-(1-((1-methylpiperidin-4-yl)sulfonyl)piperidin-4-yl)-2-(((S)-pentan-2-yl)amino)-7H-pyrrolo[2,3-d]pyrimidin-7-yl)cyclohexan-1-ol] | < 0.01 µM | 0.01 to 0.1 µM |
| CCC[C@H](C)Nc1ncc2c(C3CCN(C(=O)C4CNC4)CC3)cn([C@H]3CC[C@H](O)CC3)c2n1 [compound 13, Azetidin-3-yl(4-(7-((1R,4S)-4-hydroxycyclohexyl)-2-(((S)-pentan-2-yl)amino)-7H-pyrrolo[2,3-d]pyrimidin-5-yl)piperidin-1-yl)methanone] | < 0.01 µM | 0.01 to 0.1 µM |
| CCC[C@H](C)Nc1ncc2c(C3CCN(C(=O)c4cccc(OC)c4)CC3)cn([C@H]3CC[C@H](O)CC3)c2n1 [compound 32, (4-(7-((1R,4S)-4-hydroxycyclohexyl)-2-(((S)-pentan-2-yl)amino)-7H-pyrrolo[2,3-d]pyrimidin-5-yl)piperidin-1-yl)(3-methoxyphenyl)methanone] | < 0.01 µM | 0.1 to 1 µM |
| CCC[C@H](C)Nc1ncc2c(C3CCN(C(=O)c4ccccc4)CC3)cn([C@H]3CC[C@H](O)CC3)c2n1 [compound 30, (4-(7-((1R,4S)-4-hydroxycyclohexyl)-2-(((S)-pentan-2-yl)amino)-7H-pyrrolo[2,3-d]pyrimidin-5-yl)piperidin-1-yl)(phenyl)methanone] | < 0.01 µM | 0.01 to 0.1 µM |
| CCC[C@H](C)Nc1ncc2c(C3CCN(C(=O)c4cc(C)nc(C)c4)CC3)cn([C@H]3CC[C@H](CO)CC3)c2n1 [compound 86] | < 0.01 µM | 0.01 to 0.1 µM |
| CCCCNc1ncc2c(C3CC4CCC(C3)N4)cn([C@H]3CC[C@H](O)CC3)c2n1 (stereo partly drawn) [compound 12, (1R,4R)-4-(5-((1R,3S,5S)-8-azabicyclo[3.2.1]octan-3-yl)-2-(butylamino)-7H-pyrrolo[2,3-d]pyrimidin-7-yl)cyclohexan-1-ol] |  | 1 to 30 µM |

Reference: patent US11001586B2, “Alkyl pyrrolopyrimidine analogs and methods of making and using same” (The University of North Carolina at Chapel Hill, priority 2016, dated 2021)
